Assay results taken from patent publication US12648941B2, “Piperidine urea derivatives for use as inotropic agents” (Helsinn Healthcare SA, priority 2021, dated 2026).
Entries after “also recorded” stand apart in the source; their conditions may differ.

How the values were obtained:
[1] = test system: phospho (Ser 22-23) cardiac troponin I (cTnl); test: Phospho (Ser 22-23) cTnl western blot in cardiomyocytes; type: cell-based, mouse; conditions: SHAM cardiomyocytes; 1 μM; western blot normalized to total cTnl
Protocol: AC01/HM01 was suspended in phosphate buffer saline solution (PBS: in mM: NaCl 137, KCl 7, Na2HPO4 10, KH2PO4 […]) and diluted to obtain 3 different concentrations: 0.2, 0.5 or 1 μM in Tyrode solution. We used a concentration range within 0.2-1 μM to ensure that the receptor was activated. […] Prior to contractility and Ca^2+ signaling measurements and biochemical assays, cardiomyocyte suspensions from SHAM and HF hearts were randomized to 3 types of treatments: vehicle, AC01/HM01, or D-Lys3-GHPR-6+AC01/HM01. The treatment with different agents occurred for 15 minutes at room temperature. Some cell suspension aliquots were flash frozen in liquid N2 and stored at −80° C. for later biochemistry analyses. All the experiments were conducted blinded regarding the treatment of cardiomyocytes.
Aliquots of frozen cardiomyocyte suspensions were lysed using NP40 buffer (Thermo Fisher FNN0021, Stockholm, Sweden) supplemented with phosphatase inhibitors (Sigma-Aldrich P2850-1ML, P5726-1ML, Stockholm, Sweden). Protein lysates were separated by electrophoresis and transferred onto membranes. Membranes were incubated with primary antibody: rabbit anti phospho (Ser 22-23) cardiac troponin I (cTnl, Cell Signalling, Leiden, The Netherlands #4004S) and rabbit anti-cTnl (Cell Signalling #4002S, Leiden, The Netherlands). Thereafter, infrared-labelled secondary antibodies (IRDye 680 and IRDye 800, 1:5000, Licor) were used. Immunoreactive bands were analyzed using the Odyssey Infrared Imaging System (Li-Cor, Bad Homburg, Germany). Band densities were quantified with Image J (NIH, Bethesda, USA), normalized to total cTnl and final data was expressed as fold increase compared to bands representing protein extracted from vehicle treated cells.

[2] = test system: prolactin; test: Phase 1 SAD pharmacodynamics, serum prolactin (ELISA); type: in vivo, human
Protocol: (§1) Blood samples for determination of growth hormone (GH), insulin-like growth factor-1 (IGF-1), adrenocorticotropic hormone (ACTH), prolactin, cortisol and aldosterone in serum at pre-dose and 0.5, 1, 2, 3, 4, 6 and 24 hours post-dose were collected by venous puncture. All biomarkers were determined using enzyme linked immunosorbent assays (ELISA). Simplified nutritional appetite questionnaire based on appetite assessments at Day −1 after dinner, and on Day 1 pre-dose, 1, 2, 4, 8, and 24 hours after dosing. Stool diary starting on Day 1 until discharge on Day 4.

[3] = test system: insulin-like growth factor-1 (IGF-1); test: Phase 1 SAD pharmacodynamics, serum IGF-1 (ELISA); type: in vivo, human; conditions: 0.1-10 mg
Protocol: as §1

[4] = Phase 1 SAD, safety and tolerability; type: in vivo, human
Protocol: Single-center, randomized, double-blind, placebo-controlled, single ascending dose (SAD) study. Screening examinations were performed within 28 days prior to dosing. Eligible subjects returned to the study center in the morning of Day-1 and remained in-patient until discharge at 72 hours after dosing (morning of Day 4) if there were no safety issues. The oral dose was administered in the morning of Day 1. Subjects returned to the clinic 7 days after treatment, in the morning of Day 8 (±1 day), for the safety assessments. Adverse events (AEs), vital signs (blood pressure, pulse rate and body temperature), 12-lead ECG, Holter-ECG, physical examination (PE), and laboratory tests (hematology, clinical chemistry, and urinalysis) assessed during screening and several times throughout the study.

[5] = test system: aldosterone; test: Phase 1 SAD pharmacodynamics, serum aldosterone (ELISA); type: in vivo, human
Protocol: as §1

[6] = Phase 1 SAD, simplified nutritional appetite questionnaire; type: in vivo, human; conditions: 0.1-10 mg
Protocol: as §1

[7] = test system: cardiomyocytes isolated from hearts of heart failure (HF) mice; test: Cardiomyocyte contractility (fractional shortening, % FS), heart failure (MI) cardiomyocytes; type: cell-based, mouse; conditions: 1 μM
Protocol: Cardiomyocytes were isolated freshly from cardiac ventricles separately from SHAM and HF mice following the protocol developed by the Alliance for Cellular Signalling (AfCS Procedure Protocol ID PP00000125). From each of the 5 SHAM and 3 HF hearts a cell suspension was made and divided into 10 aliquots each, for a total of 50 aliquots from SHAM and 30 aliquots from HF hearts. These aliquots were treated with vehicle, AC01/HM01 or D-Lys3-GHPR-6+AC01/HM01 as stated and used for the subsequent physiological and biochemical experiments.
AC01/HM01 was suspended in phosphate buffer saline solution (PBS: in mM: NaCl 137, KCl 7, Na2HPO4 10, KH2PO4 […]) and diluted to obtain 3 different concentrations: 0.2, 0.5 or 1 μM in Tyrode solution. We used a concentration range within 0.2-1 μM to ensure that the receptor was activated. […]
Line scan fluorescence images were acquired using a confocal microscope (Biorad; 40× oil immersion lenses). […] ImageJ software (open source software developed by NIH, Bethesda, USA) was used to quantify changes in fluorescence (Ca^2+ transients) and contractility of single cardiomyocytes.
The contractility of cardiomyocytes was measured as the percent of length shortening (fractional shortening; % FS). […]

## COc1ccc([C@H](C)NC(=O)N(C)[C@@H]2CCN(C)CC2(C)C)c(Cl)c1Cl.Cl [AC01/HM01, 1-[(1S)-1-(2,3-dichloro-4-methoxyphenyl)ethyl]-3-methyl-3-[(4R)-1-methyl-3,3-dimethyl-4-piperidyl]-urea]
[1]
  phosphorylation of cTnl (Serine 22-23) vs vehicle: decreased phosphorylation levels; also recorded: reduced the levels of phosphorylation
[2]; 10 mg vs 1.0 mg
  prolactin increase, comparison of doses: higher after 10 mg compared to 1.0 mg
[2]; 1.0 and 10 mg HM01
  concentrations of prolactin: rapidly increased above baseline values
[3]
  IGF-1 serum levels, dose groups vs placebo: No relevant differences
[4]; 0.1 mg
  TEAEs reported: no TEAEs
[4]; 0.3 mg
  number of TEAEs: 5 TEAEs
[4]; 1.0 mg
  number of TEAEs: 7 TEAEs
[4]; 1.0 mg, hot flush
  subjects reporting TEAEs of moderate intensity: 1 subject
[4]; 10 mg
  number of TEAEs: 19 TEAEs
[4]; 10 mg, sinus bradycardia
  subjects reporting TEAEs of moderate intensity: 1 subject
[4]; 0.1-10 mg single oral dose
  number of subjects reporting TEAEs and number of TEAEs, dose dependence: increased dose-dependently
[4]; after dosing / between treatment groups
  mean systolic and diastolic blood pressure and body temperature: no clinically relevant changes
[4]; all dose groups
  intensity of TEAEs: Most TEAEs were of mild intensity
[4]; in vivo
  laboratory parameters, differences between dosing groups: no clinically relevant differences
[4]; started mainly shortly after dosing, short duration
  most frequently reported TEAEs: nervous system disorder (mainly headache) and cardiac disorders (mainly sinus bradycardia)
[5]; 1.0 and 10 mg HM01
  concentrations of aldosterone: rapidly increased above baseline values
[5]; 1.0 vs 10 mg
  aldosterone increase, comparison of doses: similar
[6]
  appetite questionnaire, dose groups vs placebo: no relevant or consistent differences
[7]
  contractility, fractional shortening (FS %) vs vehicle: significant increase of contractility; also recorded: positively responded
